Counter-ions that a name gives are not always drawn.

This note sets out measurements from patent publication US11465978B2, “Anthranilic amides and the use thereof” (THE ADMINISTRATORS OF THE TULANE EDUCATIONAL FUND, priority 2013, dated 2022).

One data set has as its system pERK1/2. The experiment in a line: Western blot, inhibition of EGF-mediated formation of pERK1/2 in MDA-MB-231 cells. Format: cell-based. The note with it: for pERK-½ decrease (%): Example 3 table, DMSO = 0, MDA-MB-231, EGF stimulation; for inhibition at 10 µM: Homo sapiens, MDA-MB-231, Table 1, MDA-MB-231, compounds 10 μM 30 min, then EGF 50 ng/mL 15 min, read-out: cellular pERK1/2 decrease (%). The method, then:
(§1) FIG. 9 is a set of bar graphs showing a Western blot analysis of potential MEK5 inhibitors. The MDA-MB-231 triple negative breast cancer cell line was pretreated with compounds (10 μM) for 30 minutes followed by stimulation with epidermal growth factor (EGF, 50 ng/mL) for 15 minutes. Vehicle-treated cells were pretreated with DMSO for 30 minutes prior to EGF stimulation for 15 minutes. Protein visualization and quantification analysis were performed using LI-COR Odyssey Imager. * P<0.05 vs. Vehicle, one-way ANOVA followed by Tukey-Kramer test (n=3).
(§2) A number of compounds were tested for their potential as MEK5 inhibitors. The MDA-MB-231 triple negative breast cancer cell line was pretreated with 10 μM of compounds 24, 9b, 9a, 9c, 9e, 9f, 9d, 9h, 23, 7, and 15 for 30 minutes followed by stimulation with epidermal growth factor (EGF, 50 ng/mL) for 15 minutes. Vehicle-treated cells and known MEK1/2 inhibitor cells were pretreated with DMSO and U0126 respectively for 30 minutes prior to EGF stimulation for 15 minutes. Protein visualization and quantification analysis was performed using LI-COR Odyssey Imager. The results of the Western blot analysis are shown in FIG. 9. * P<0.05 vs. Vehicle, one-way ANOVA followed by Tukey-Kramer test (n=3).
(§3) MDA-MB-231 cells were grown on 10 cm cell culture plates [Sarstedt] in Dulbecco's Modified Eagle's Medium (DMEM; Gibco) with Ham's F12 Nutrient Mixture (1:1) (Invitrogen), 10% heat-inactivated FBS [Atlanta Biological and 0.5% penicillin/streptomycin [Gibco]. Cells were maintained at 37° C. with 5% CO2. Plating of the cells was done 36 hours before treatment in 35 mm culture plates [Sarstedt] and allowed to reach confluence. To test MEK-5 inhibitors, the cells were treated with epidermal growth factor (EGF; Sigma-Aldrich) 30 min after treatment with the compounds. 15 min after the addition of EGF, the cells were washed with 1×PBS [Sigma-Aldrich] and then lysed in 1% Triton X-100 buffer containing 20 mM Tris (pH 6.8), 137 mM NaCl, 25 mM beta glycerophosphate, 2 mM NaPPi, 2 mM EDTA, 1 mM Na3VO4, 10% glycerol, 5 μg/mL leupeptin, 5 μg/mL aprotinin, 2 mM benzamidine, 0.5 mM DTT, and 1 mM PMSF. The lysates were then centrifuged at 10,000 rpm for 10 min at 4° C.
(§4) Total protein content was assessed by Bradford Bio-Rad protein assay (Cat. No. 500-0006, Bio-Rad, Hercules, Calif.) and 30 μg of protein was loaded on a 8% SDS-PAGE gel for phosphorylated and total ERK1/2 and ERK5 proteins. After running the samples, gels were transferred to a nitrocellulose membrane (Cat. No. 926-31092, Licor Biosciences, Lincoln, Nebr.). After transfer, membranes were washed for 5 min with 1×PBS and blocked for 1 h in a Casein Blocking Buffer (Cat. No. 927-40200, Licor Biosciences) at room temperature. Membranes were then incubated overnight at 4° C. in primary antibody in CBB with 0.2% Tween-20. Antibodies included rabbit anti-phospho-ERK1/2 (Dilution—1:1000, Cat. No. 9101, Cell Signaling, Beverly, Mass.), mouse anti-total ERK1/2 (Dilution—1:1000, Cat. No. 9107, Cell Signaling), and rabbit anti-total ERK5 (Dilution—1:1,000, Cat. No. 3372, Cell Signaling). Mouse anti-α-Tubulin (Dilution—1:10,000, Cat. No. T5168, Sigma-Aldrich) was used as a loading control. After incubation with primary antibody, blots were washed in 1×PBS solution with 0.2% Tween-20 (1×PBS-T) and incubated with goat anti-rabbit (Dilution—1:10,000, Cat. No. 926-68021, LICOR Biosciences) and goat anti-mouse (Dilution—1:10,000, Cat. No. 926-32210, LICOR Biosciences) secondary antibodies for 1 h at room temperature. After washing the membranes with 1×PBS-T, the protein bands were visualized on an Odyssey Infrared Imager and quantified with Odyssey software (LICOR Biosciences).
On the technique in general: A western blot detects proteins with antibodies after separation by electrophoresis.

A further data set concerns pERK5. Briefly: Western blot, inhibition of EGF-mediated formation of pERK5 in MDA-MB-231 cells. The class given is cell-based. The note with it: for pERK-5 decrease (%) / pERK-5 relative activity (%): Example 3 table, MDA-MB-231, EGF stimulation; for pERK-5 decrease (%): DMSO = 0; for pERK-5 relative activity (%): DMSO = 100; for cellular pERK5 activation (printed in the decrease column): Table 1, cell marked 'activation'; for inhibition at 10 µM: Homo sapiens, MDA-MB-231, Table 1, MDA-MB-231, compounds 10 μM 30 min, then EGF 50 ng/mL 15 min, read-out: cellular pERK5 decrease (%). The method, then:
as §1, §2, §3, §4

The melting point is the temperature of the solid-liquid transition. `NC(=O)c1ccc(F)c(F)c1Nc1ccccc1F` [SC-2-37, 3,4-difluoro-2-((2-fluorophenyl)amino)benzamide] returned a melting point of 157.6 to 161.2 °C. The “pERK-½ decrease (%)” value in the data set on pERK1/2 was 52.8%. Further, the “pERK-5 decrease (%)” value in the data set on pERK5 is 56.1%.
Consider `O=C(c1ccc(F)c(F)c1Nc1ccc(I)cc1F)N1CCNCC1` [Compound 9f, (3,4-difluoro-2-((2-fluoro-4-iodophenyl)amino)phenyl)(piperazin-1-yl)methanone hydrochloride], for which, in the data set with pERK1/2, the “pERK-½ decrease (%)” value came out at 99.0% and the inhibition at 10 µM worked out at 99%. In addition, in the data set with pERK5, the “pERK-5 relative activity (%)” value was 6.2% and the “cellular pERK5 activation (printed in the decrease column)” value is recorded as “activation (+4.4) %”.
Regarding `CCOc1cc(N2CCC(O)CC2)ccc1Nc1ncc2c(n1)N(C)c1ccccc1C(=O)N2C` [XMD8-92, reference compound], the “pERK-½ decrease (%)” value with pERK1/2 is reported as 50.1%. In the data set on pERK5, the “pERK-5 decrease (%)” value is 95.2%.
Turning to `CN1CCN(C(=O)c2ccc(F)c(F)c2Nc2ccc(I)cc2F)CC1` [IC-D-122b], the inhibition at 10 µM was 39% in the data set on pERK1/2 and 33% with pERK5.
Take `CC(C)(C)OC(=O)N1CCN(C(=O)c2ccc(F)c(F)c2Nc2ccc(I)cc2F)CC1` [Compound 9g, Tert-butyl 4-(3,4-difluoro-2-((2-fluoro-4-iodophenyl)amino)benzoyl)piperazine-1-carboxylate]: in the data set with pERK1/2, the “pERK-½ decrease (%)” value turned out to be 70.9% and the inhibition at 10 µM is 70.9%. Besides, in the data set with pERK5, the “pERK-5 decrease (%)” value turned out to be 8.4% and the inhibition at 10 µM worked out at 8.4%.
For `CN(c1ccc(I)cc1F)c1c(C(=O)O)ccc(F)c1F` [SC-2-32, 3,4-difluoro-2-((2-fluoro-4-iodophenyl)(methyl)amino)benzoic acid], the “pERK-½ decrease (%)” value in the data set on pERK1/2 is given as 33.5%. In addition, the “pERK-5 relative activity (%)” value in the data set with pERK5 worked out at 5.5%.
With `CN(C)C(=O)c1ccc(F)c(F)c1Nc1ccc(I)cc1F` [Compound 9a, 3,4-difluoro-2-((2-fluoro-4-iodophenyl)amino)-N,N-dimethylbenzamide], in the data set on pERK1/2, the “pERK-½ decrease (%)” value is on record as 87.3% and the inhibition at 10 µM is 87.3%. For the same molecule, in the data set on pERK5, the “pERK-5 decrease (%)” value was found to be 0.2% and the inhibition at 10 µM was found to be 0.2%.
Regarding `CCN(CC)C(=O)c1ccc(F)c(F)c1Nc1ccc(I)cc1F` [Compound 9b, N,N-diethyl-3,4-difluoro-2-((2-fluoro-4-iodophenyl)amino)benzamide], in the data set with pERK1/2, the “pERK-½ decrease (%)” value amounted to 5.5% and the inhibition at 10 µM is 5.5%. For the same molecule, in the data set on pERK5, the “pERK-5 relative activity (%)” value was determined as 7.4% and the “cellular pERK5 activation (printed in the decrease column)” value is “activation (−7.4) %”.
With `CN1CCN(C(=O)c2ccc(F)c(F)c2Nc2ccccc2F)CC1.O=C(O)/C=C/C(=O)O` [SC-2-45, (3,4-difluoro-2-((2-fluorophenyl)amino)phenyl)(4-methylpiperazin-1-yl)methanone mono-fumarate], the “pERK-½ decrease (%)” value with pERK1/2 was 16.5%. Besides, the “pERK-5 decrease (%)” value in the data set with pERK5 is reported as 40.5%.
The like results for `O=C(O)c1ccc(F)c(F)c1Nc1ccccc1` [Compound 12, 3,4-difluoro-2-(phenylamino)benzoic acid] were, in that order, 7.1% and 10.4%.
In the case of `O=C(N[C@H](CO)C(=O)O)c1ccc(F)c(F)c1Nc1ccc(I)cc1F` [IC-3-117], the inhibition at 10 µM in the data set on pERK1/2 was 80.8%; in the data set on pERK5, 127%.
For `O=C(O)c1ccc(F)c(F)c1Nc1ccc(I)cc1F` [Compound 7, 3,4-difluoro-2-((2-fluoro-4-iodophenyl)amino)benzoic acid], in the data set on pERK1/2, the “pERK-½ decrease (%)” value worked out at 98.5% and the inhibition at 10 µM turned out to be 98.5%. In addition, in the data set on pERK5, the “pERK-5 decrease (%)” value is given as 20.1% and the inhibition at 10 µM was 20.1%.
